Laboratory results published in US9102674B2, “Substituted naphthyridine and quinoline compounds as MAO inhibitors” (DART NEUROSCIENCE (CAYMAN) LTD., priority 2013, dated 2015).

The compounds below were run against T1, Human recombinant MAO-B (Homo sapiens, UniProt P27338) (assay: MAO-B enzymatic assay (fluorometric, kynuramine)). Conditions: human recombinant MAO-B expressed in insect cells; kynuramine substrate; values given as bins; read-out: MAO-B (pEC50) (converted).
T1 construct: host or cells: insect cells
T1 sequence (P27338 1-520): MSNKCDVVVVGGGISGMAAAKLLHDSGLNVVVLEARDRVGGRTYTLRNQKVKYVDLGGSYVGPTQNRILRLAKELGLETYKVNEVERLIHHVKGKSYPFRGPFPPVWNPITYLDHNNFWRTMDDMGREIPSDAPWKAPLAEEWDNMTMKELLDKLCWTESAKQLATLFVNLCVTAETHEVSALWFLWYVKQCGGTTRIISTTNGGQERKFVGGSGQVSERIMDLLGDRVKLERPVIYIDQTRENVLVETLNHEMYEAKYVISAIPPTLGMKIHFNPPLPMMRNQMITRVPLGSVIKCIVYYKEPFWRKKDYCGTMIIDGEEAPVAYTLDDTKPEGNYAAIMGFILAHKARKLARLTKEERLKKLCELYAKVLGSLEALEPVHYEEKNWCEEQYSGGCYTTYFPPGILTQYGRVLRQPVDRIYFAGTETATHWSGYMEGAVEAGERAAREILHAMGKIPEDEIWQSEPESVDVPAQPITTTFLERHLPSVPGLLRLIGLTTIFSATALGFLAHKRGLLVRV
Format: biochemical
Procedure: The MAO enzymatic assay was performed according to the fluorometric method described by Matsumoto and colleagues (Matsumoto et al., Clin. Biochem. 1985, 18, 126-129) with the following modifications. Human recombinant MAO-A and MAO-B expressed in insect cells were used. For both assays, test compound and/or vehicle were preincubated with purified enzyme in phosphate buffer pH 7.4 for 15 minutes at 37° C. The reaction was initiated by addition of […] kynuramine. Following a 60 minute incubation period, the reaction was terminated by the addition of 6 N NaOH. The amount of 4-hydroxyquinoline that formed was determined by spectrofluorimetrically at 325 nm/465 nm.
Results were converted to percent inhibition, and the EC50 (M) for each reaction was determined using the XLfit program from IDBS (ID Business Solutions Ltd., 2 Occam Court, Surrey Research Park, Guildford, Surrey, GU2 7QB UK). The EC50 represents the concentration of a compound where 50% of its maximal effect is observed. The pEC50 is defined as the negative logarithm of the EC50; a higher pEC50 value therefore corresponds to higher potency in the assay.
Representative compounds of the invention were evaluated in the MAO-B enzymatic assay. Typically, the compounds of the invention show MAO-B inhibitory properties at a concentration of 0.1 to 10 μM, typically at 5-100%.
As depicted in the following Table, these inhibitory properties were mirrored by pEC50 values ranging from 5 (meaning 10^−5 M or 10 μM) to greater than 7 (meaning less than 10^−7 M or 0.1 μM).

| EC50 | Structure (SMILES) |
| --- | --- |
| < 100 nM | CCOC(=O)c1cnc2cc(OCc3cccc(F)c3)ccc2c1 [Example 4, Ethyl 7-[(3-fluorophenyl)methoxy]quinoline-3-carboxylate] |
| < 100 nM | Cc1nc2cc(OCc3ccc(F)cc3)ccc2cc1C(C)(C)O [Example 31, 2-(7-((4-Fluorobenzyl)oxy)-2-methylquinolin-3-yl)propan-2-ol] |
| < 100 nM | CC(C)(F)c1cnc2cc(OCc3ccc(F)cc3)ccc2c1 [Example 41, 7-((4-Fluorobenzyl)oxy)-3-(2-fluoropropan-2-yl)quinoline] |
| < 100 nM | CCOC(=O)c1cnc2cc(OCc3ccc(F)c(F)c3)ccc2c1 [Example 14, Ethyl 7-((3,4-difluorobenzyl)oxy)quinoline-3-carboxylate] |
| < 100 nM | CNC(=O)c1cnc2cc(OCc3cccc(Cl)c3)ccc2c1 [Example 46, 7-((3-Chlorobenzyl)oxy)-N-methylquinoline-3-carboxamide] |
| 100 to 1000 nM | CCOC(=O)c1cnc2cc(OCc3ccc(OC)cc3)ccc2c1 [Example 10, Ethyl 7-((4-methoxybenzyl)oxy)quinoline-3-carboxylate] |
| < 100 nM | CCOC(=O)c1cnc2cc(OCc3ccc(Cl)cc3)ccc2c1 [Example 1, Ethyl 7-[(4-chlorophenyl)methoxy]quinoline-3-carboxylate] |
| < 100 nM | COC(=O)c1cnc2cc(OCc3cccc(Cl)c3)ccc2c1 [Example 26, Methyl 7-((3-chlorobenzyl)oxy)quinoline-3-carboxylate] |
| 100 to 1000 nM | CCOC(=O)c1cnc2cc(OCc3ccc(C(F)(F)F)cc3)ccc2c1 [Example 6, Ethyl 7-((4-(trifluoromethyl)benzyl)oxy)quinoline-3-carboxylate] |
| 1000 to 10000 nM | CN(C)CCNC(=O)c1cnc2cc(OCc3cccc(Cl)c3)ccc2c1 [Example 49, 7-((3-Chlorobenzyl)oxy)-N-(2-(dimethylamino)ethyl)quinoline-3-carboxamide] |
| 100 to 1000 nM | CCOC(=O)c1cnc2cc(OCc3ccc(C)cc3)ccc2c1 [Example 8, Ethyl 7-((4-methylbenzyl)oxy)quinoline-3-carboxylate] |
| < 100 nM | CC(=O)c1cnc2cc(OCc3ccc(F)cc3)ccc2c1 [Example 42, 1-(7-((4-Fluorobenzyl)oxy)quinolin-3-yl)ethanone] |
| < 100 nM | NCCNC(=O)c1cnc2cc(OCc3cccc(Cl)c3)ccc2c1 [Example 47, N-(2-Aminoethyl)-7-((3-chlorobenzyl)oxy)quinoline-3-carboxamide] |
| < 100 nM | CCOC(=O)c1cnc2cc(OCc3ccc(F)c(C(F)(F)F)c3)ccc2c1 [Example 12, Ethyl 7-((4-fluoro-3-(trifluoromethyl)benzyl)oxy)quinoline-3-carboxylate] |
| < 100 nM | CCOC(=O)c1cnc2cc(OCc3cccc(OC)c3)ccc2c1 [Example 9, Ethyl 7-((3-methoxybenzyl)oxy)quinoline-3-carboxylate] |
| < 100 nM | CC(C)(O)c1cnc2cc(OCc3ccc(F)cc3)cnc2c1 [Example 65, 2-{7-[(4-Fluorophenyl)methoxy]-1,5-naphthyridin-3-yl}propan-2-ol] |
| 100 to 1000 nM | CCOC(=O)c1cnc2cc(OCc3ccc([N+](=O)[O-])cc3)ccc2c1 [Example 11, Ethyl 7-((4-nitrobenzyl)oxy)quinoline-3-carboxylate] |
| < 100 nM | CCOC(=O)c1cnc2cc(OCc3cccc([N+](=O)[O-])c3)ccc2c1 [Example 18, Ethyl 7-((3-nitrobenzyl)oxy)quinoline-3-carboxylate] |
| < 100 nM | NC(=O)c1cnc2cc(OCc3ccc(F)cc3)cnc2c1 [Example 68, 7-((4-Fluorobenzyl)oxy)-1,5-naphthyridine-3-carboxamide] |

Continued, compound first:

| Structure (SMILES) | EC50 |
| --- | --- |
| NC(=O)Cc1cnc2cc(OCc3cccc(C(F)(F)F)n3)cnc2c1 [Example 81, 2-(7-((6-(Trifluoromethyl)pyridin-2-yl)methoxy)-1,5-naphthyridin-3-yl)acetamide] | 100 to 1000 nM |
| OCc1cnc2cc(OCc3ccc(F)c(F)c3)cnc2c1 [Example 73, (7-((3,4-Difluorobenzyl)oxy)-1,5-naphthyridin-3-yl)methanol] | < 100 nM |
| NC(=O)c1cnc2cc(OCc3ccc(F)c(F)c3)cnc2c1 [Example 70, 7-((3,4-Difluorobenzyl)oxy)-1,5-naphthyridine-3-carboxamide] | < 100 nM |
| Cc1nc2cc(OCc3cccc(Cl)c3)ccc2cc1C(C)(C)O [Example 32, 2-(7-((3-Chlorobenzyl)oxy)-2-methylquinolin-3-yl)propan-2-ol] | < 100 nM |
| CC(C)(O)c1cnc2cc(OCc3cccc(Cl)c3)cnc2c1 [Example 79, 2-{7-[(3-Chlorophenyl)methoxy]-1,5-naphthyridin-3-yl}propan-2-ol] | < 100 nM |
| CNCCNC(=O)c1cnc2cc(OCc3cccc(Cl)c3)ccc2c1 [Example 48, 7-((3-Chlorobenzyl)oxy)-N-(2-(methylamino)ethyl)quinoline-3-carboxamide] | 100 to 1000 nM |
| NC(=O)CC1Cc2ccc(OCc3cccc(Cl)c3)cc2NC1=O (stereo not drawn) [Example 82, 2-(7-((3-Chlorobenzyl)oxy)-2-oxo-1,2,3,4-tetrahydroquinolin-3-yl)acetamide] | < 100 nM |
| CCOC(=O)C(C)(C)c1cnc2cc(OCc3cccc(Cl)c3)ccc2c1 [Example 59, Ethyl 2-(7-((3-chlorobenzyl)oxy)quinolin-3-yl)-2-methylpropanoate] | 100 to 1000 nM |
| CC(C)(O)c1cnc2cc(OCc3ccc(F)c(Cl)c3)cnc2c1 [Example 78, 2-{7-[(3-Chloro-4-fluorophenyl)methoxy]-1,5-naphthyridin-3-yl}propan-2-ol] | < 100 nM |
| CC(C)(C(N)=O)c1cnc2cc(OCc3cccc(Cl)c3)ccc2c1 [Example 61, 2-(7-((3-Chlorobenzyl)oxy)quinolin-3-yl)-2-methylpropanamide] | < 100 nM |
| NC(=O)c1cnc2cc(OCc3ccc(F)c(Cl)c3)cnc2c1 [Example 71, 7-[(3-Chloro-4-fluorophenyl)methoxy]-1,5-naphthyridine-3-carboxamide] | < 100 nM |
| CC(C)(O)c1cnc2cc(OCc3cc(F)c(F)c(F)c3)ccc2c1 [Example 30, 2-(7-((3,4,5-Trifluorobenzyl)oxy)quinolin-3-yl)propan-2-ol] | < 100 nM |
| CCOC(=O)c1cnc2cc(OCCc3cccc(Cl)c3)ccc2c1 [Example 25, Ethyl 7-(3-chlorophenethoxy)quinoline-3-carboxylate] | 100 to 1000 nM |
| OCc1cnc2cc(OCc3cc(F)c(F)c(F)c3)ccc2c1 [Example 37, (7-((3,4,5-Trifluorobenzyl)oxy)quinolin-3-yl)methanol] | < 100 nM |
| N#CCc1cnc2cc(OCc3ccc(F)c(F)c3)cnc2c1 [Example 74, 2-{7-[(3,4-Difluorophenyl)methoxy]-1,5-naphthyridin-3-yl}acetonitrile] | < 100 nM |
| NC(=O)c1cnc2cc(OCc3cccc(F)c3)cnc2c1 [Example 67, 7-[(3-Fluorophenyl)methoxy]-1,5-naphthyridine-3-carboxamide] | < 100 nM |
| CCOC(=O)c1cc2ccc(OCc3cccc(F)c3)cc2nc1C [Example 21, Ethyl 7-((3-fluorobenzyl)oxy)-2-methylquinoline-3-carboxylate] | < 100 nM |
| CC(C)(O)c1cnc2cc(OCc3cccc(F)c3)cnc2c1 [Example 76, 2-{7-[(3-Fluorophenyl)methoxy]-1,5-naphthyridin-3-yl}propan-2-ol] | < 100 nM |
| CCOC(=O)c1cnc2cc(OCc3cc(F)cc(C(F)(F)F)c3)ccc2c1 [Example 13, Ethyl 7-((3-fluoro-5-(trifluoromethyl)benzyl)oxy)quinoline-3-carboxylate] | < 100 nM |
| CCOC(=O)c1cnc2cc(OCc3cc(F)c(F)c(F)c3)ccc2c1 [Example 16, Ethyl 7-((3,4,5-trifluorobenzyl)oxy)quinoline-3-carboxylate] | < 100 nM |
| CC(C)(O)c1cnc2cc(OCc3cccc(Cl)c3)ccc2c1 [Example 28, 2-(7-((3-Chlorobenzyl)oxy)quinolin-3-yl)propan-2-ol] | < 100 nM |
| CC(C)(CO)c1cnc2cc(OCc3cccc(Cl)c3)ccc2c1 [Example 60, 2-(7-((3-Chlorobenzyl)oxy)quinolin-3-yl)-2-methylpropan-1-ol] | < 100 nM |
| CC(C)(O)c1cnc2cc(OCc3cc(F)cc(F)c3)ccc2c1 [Example 29, 2-(7-((3,5-Difluorobenzyl)oxy)quinolin-3-yl)propan-2-ol] | < 100 nM |
